# Experimental data taken from patent publication US7915270B2, “Oxazole ketones as modulators of fatty acid amide hydrolase” (The Scripps Research Institute, priority 2006, dated 2011).
# Target: T1, Rat FAAH (Rattus norvegicus, UniProt P97612)
# T1 construct: expressed in transfected cells
# T1 sequence (P97612 1-579): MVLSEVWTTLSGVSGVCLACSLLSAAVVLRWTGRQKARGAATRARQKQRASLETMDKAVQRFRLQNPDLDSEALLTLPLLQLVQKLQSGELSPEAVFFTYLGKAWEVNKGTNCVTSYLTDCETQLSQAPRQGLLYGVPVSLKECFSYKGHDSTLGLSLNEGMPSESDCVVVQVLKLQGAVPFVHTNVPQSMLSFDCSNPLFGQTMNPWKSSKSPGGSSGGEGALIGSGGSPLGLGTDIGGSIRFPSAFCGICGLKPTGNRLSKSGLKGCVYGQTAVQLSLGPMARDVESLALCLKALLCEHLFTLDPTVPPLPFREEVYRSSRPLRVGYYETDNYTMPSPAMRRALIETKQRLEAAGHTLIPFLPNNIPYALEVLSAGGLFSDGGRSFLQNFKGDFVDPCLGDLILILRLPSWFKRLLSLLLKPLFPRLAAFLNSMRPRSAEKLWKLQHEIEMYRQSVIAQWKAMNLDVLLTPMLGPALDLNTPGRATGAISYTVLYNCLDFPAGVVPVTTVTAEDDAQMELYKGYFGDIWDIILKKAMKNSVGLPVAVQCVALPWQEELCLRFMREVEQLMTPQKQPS
# Assay: Assay Method 2: FAAH assay, 3H-anandamide hydrolysis in cell homogenate (SK-N-MC cells transfected with rat FAAH)
# Format: biochemical
# Details: 3H-AEA 80 nM, rt 1 h, pH 9
# Method: A. Transfection of Cells with Rat FAAH
# (§1) A 10-cm tissue culture dish with a confluent monolayer of SK—N-MC cells was split 2 days (d) prior to transfection. Using sterile technique, the media was removed and the cells were detached from the dish by the addition of trypsin. One fifth of the cells were then placed onto a new 10-cm dish. Cells were grown in a 37° C. incubator with 5% CO2 in Minimal Essential Media Eagle with 10% Fetal Bovine Serum. After 2 d, cells were approximately 80% confluent. These cells were removed from the dish with trypsin and pelleted in a clinical centrifuge. The pellet was re-suspended in 400 μL complete media and transferred to an electroporation cuvette with a 0.4 cm gap between the electrodes. Supercoiled rat FAAH cDNA (1 μg) was added to the cells and mixed. The voltage for the electroporation was set at 0.25 kV, and the capacitance was set at 960 μF. After electroporation, the cells were diluted into complete media (10 mL) and plated onto four 10-cm dishes. Because of the variability in the efficiency of electroporation, four different concentrations of cells were plated. The ratios used were 1:20, 1:10, and 1:5, with the remainder of the cells being added to the fourth dish. The cells were allowed to recover for 24 h before adding the selection media (complete media with 600 μg/mL G418). After 10 d, dishes were analyzed for surviving colonies of cells. Dishes with well-isolated colonies were used. Cells from individual colonies were isolated and tested.
# The assay mixture consisted of 50 μL of the cell homogenate, 10 μL of the test compound, and 40 μL of anandamide [1-^3H-ethanolamine] (^3H-AEA, Perkin-Elmer, 10.3 Ci/mmol), which was added last, for a final tracer concentration of 80 nM. The reaction mixture was incubated at rt for 1 h. During the incubation, 96-well Multiscreen filter plates (catalog number MAFCNOB50; Millipore, Bedford, Mass., USA) were loaded with 25 μL of activated charcoal (Multiscreen column loader, catalog number MACL09625, Millipore) and washed once with 100 μL of MeOH. […] After the 1 h incubation, 60 μL of the reaction mixture were transferred to the charcoal plates, which were then assembled on top of the DYNEX plates using Centrifuge Alignment Frames (catalog number MACF09604, Millipore). The unbound labeled ethanolamine was centrifuged through to the bottom plate (5 min at 2000 rpm), which was preloaded with the scintillant, as described above. The plates were sealed and left at rt for 1 h before counting on a Hewlett Packard TopCount.
row,Compound,IC50 [nM]
1,"O=C(CCCCCCc1ccccc1)c1ncc(-c2cccc(F)c2)o1 [Example 11, 1-(5-(3-Fluorophenyl)oxazol-2-yl)-7-phenylheptan-1-one]",6300
2,"O=C(CCCCCCc1ccccc1)c1ncc(-c2ccc(C(=O)O)s2)o1 [Example 58, 5-(2-(7-Phenylheptanoyl)oxazol-5-yl)thiophene-2-carboxylic acid]",9
3,"O=C(CCCCCCc1ccccc1)c1ncc(-c2ccccc2F)o1 [Example 10, 1-(5-(2-Fluorophenyl)oxazol-2-yl)-7-phenylheptan-1-one]",9000
4,"O=C(CCCCCCc1ccccc1)c1ncc(-c2ccccc2O)o1 [Example 30, 1-(5-(2-Hydroxyphenyl)oxazol-2-yl)-7-phenylheptan-1-one]",3500
5,"O=C(CCCCCCc1ccccc1)c1ncc(-c2cccc([N+](=O)[O-])c2)o1 [Example 2, 1-(5-(3-Nitrophenyl)oxazol-2-yl)-7-phenylheptan-1-one]",500
6,"COC(=O)c1ccc(-c2cnc(C(=O)CCCCCCc3ccccc3)o2)s1 [Example 57, Methyl 5-(2-(7-phenylheptanoyl)oxazol-5-yl)thiophene-2-carboxylate]",75

# The remaining lines, values ahead:
row,IC50 [nM],Compound
1,1000,"COC(=O)c1ccc(-c2cnc(C(=O)CCCCCCc3ccccc3)o2)cc1 [Example 24, Methyl 4-(2-(7-phenylheptanoyl)oxazol-5-yl)benzoate]"
2,100,"COC(=O)c1cccc(-c2cnc(C(=O)CCCCCCc3ccccc3)o2)c1 [Example 23, Methyl 3-(2-(7-phenylheptanoyl)oxazol-5-yl)benzoate]"
3,150,"COC(=O)c1cccnc1-c1cnc(C(=O)CCCCCCc2ccccc2)o1 [Example 36, Methyl 2-(2-(7-phenylheptanoyl)oxazol-5-yl)nicotinate]"
4,9,"COC(=O)c1ccc(-c2cnc(C(=O)CCCCCCc3ccccc3)o2)nc1 [Example 34, Methyl 6-(2-(7-phenylheptanoyl)oxazol-5-yl)nicotinate]"

# Target: T2, FAAH (Homo sapiens, UniProt O00519)
# T2 sequence (O00519 1-579): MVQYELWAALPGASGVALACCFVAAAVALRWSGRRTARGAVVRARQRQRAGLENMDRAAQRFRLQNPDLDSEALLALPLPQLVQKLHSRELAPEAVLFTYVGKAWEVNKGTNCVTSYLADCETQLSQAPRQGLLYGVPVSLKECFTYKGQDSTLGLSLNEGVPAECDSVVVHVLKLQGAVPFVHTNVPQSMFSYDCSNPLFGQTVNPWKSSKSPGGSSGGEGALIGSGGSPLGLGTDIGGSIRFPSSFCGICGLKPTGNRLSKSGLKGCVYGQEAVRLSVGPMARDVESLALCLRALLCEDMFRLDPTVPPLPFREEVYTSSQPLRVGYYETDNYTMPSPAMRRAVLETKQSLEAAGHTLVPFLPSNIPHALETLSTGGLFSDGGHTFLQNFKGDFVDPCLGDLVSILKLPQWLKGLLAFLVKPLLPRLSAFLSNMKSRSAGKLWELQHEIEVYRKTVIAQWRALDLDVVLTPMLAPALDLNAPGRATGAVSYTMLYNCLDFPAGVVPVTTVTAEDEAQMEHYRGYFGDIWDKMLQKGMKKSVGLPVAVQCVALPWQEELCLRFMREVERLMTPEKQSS
# Assay: Assay Method 1B: FAAH assay, 3H-anandamide hydrolysis in cell homogenate (T84 or SK-N-MC cells transfected with human FAAH)
# Format: biochemical
# Parameters: expressed in transfected cells
# Details: 3H-AEA 80 nM, rt 1 h, pH 9
# Method: as §1, with “Transfection of Cells with Human FAAH A 10-cm” for “A 10-cm”, “electrodes. Supercoiled human FAAH cDNA” for “electrodes. Supercoiled rat FAAH cDNA”, “and tested. […] The reaction mixture was incubated at rt for 1 h. During the incubation, 96-well Multiscreen filter plates (catalog number MAFCNOB50; Millipore, Bedford, Mass., USA) were loaded with 25 μL of activated charcoal (Multiscreen column loader, catalog number MACL09625, Millipore) and washed once with 100 μL of MeOH. Also during the incubation, 96-well DYNEX MicroLite plates (catalog number NL510410) were loaded with 100 μL of MicroScint40 (catalog number 6013641, Packard Bioscience, Meriden, Conn., USA). After the 1 h incubation, 60 μL of the reaction mixture were transferred to the charcoal plates, which were then assembled on top of the DYNEX plates using Centrifuge Alignment Frames (catalog number MACF09604, Millipore). The unbound labeled ethanolamine was centrifuged through to the bottom plate (5 min at 2000 rpm), which was preloaded with the scintillant, as described above. The plates were sealed and left at rt for 1 h before counting on a Hewlett Packard TopCount.” for “and tested.”
row,Compound,IC50 [nM]
1,"O=C(CCCCCCc1ccccc1)c1ncc(-c2cccc(F)c2)o1 [Example 11, 1-(5-(3-Fluorophenyl)oxazol-2-yl)-7-phenylheptan-1-one]",220
2,"O=C(CCCCCCc1ccccc1)c1ncc(-c2ccc(C(=O)O)s2)o1 [Example 58, 5-(2-(7-Phenylheptanoyl)oxazol-5-yl)thiophene-2-carboxylic acid]",1
3,"O=C(CCCCCCc1ccccc1)c1ncc(-c2ccccc2F)o1 [Example 10, 1-(5-(2-Fluorophenyl)oxazol-2-yl)-7-phenylheptan-1-one]",1600
4,"O=C(CCCCCCc1ccccc1)c1ncc(-c2ccccc2O)o1 [Example 30, 1-(5-(2-Hydroxyphenyl)oxazol-2-yl)-7-phenylheptan-1-one]",115
5,"O=C(CCCCCCc1ccccc1)c1ncc(-c2cccc([N+](=O)[O-])c2)o1 [Example 2, 1-(5-(3-Nitrophenyl)oxazol-2-yl)-7-phenylheptan-1-one]",50
6,"COC(=O)c1ccc(-c2cnc(C(=O)CCCCCCc3ccccc3)o2)s1 [Example 57, Methyl 5-(2-(7-phenylheptanoyl)oxazol-5-yl)thiophene-2-carboxylate]",6

# Further lines, results first:
row,IC50 [nM],Compound
1,24,"COC(=O)c1ccc(-c2cnc(C(=O)CCCCCCc3ccccc3)o2)cc1 [Example 24, Methyl 4-(2-(7-phenylheptanoyl)oxazol-5-yl)benzoate]"
2,15,"COC(=O)c1cccc(-c2cnc(C(=O)CCCCCCc3ccccc3)o2)c1 [Example 23, Methyl 3-(2-(7-phenylheptanoyl)oxazol-5-yl)benzoate]"
3,180,"COC(=O)c1cccnc1-c1cnc(C(=O)CCCCCCc2ccccc2)o1 [Example 36, Methyl 2-(2-(7-phenylheptanoyl)oxazol-5-yl)nicotinate]"
4,11,"COC(=O)c1ccc(-c2cnc(C(=O)CCCCCCc3ccccc3)o2)nc1 [Example 34, Methyl 6-(2-(7-phenylheptanoyl)oxazol-5-yl)nicotinate]"

# Target: T3, FAAH (Rattus norvegicus, UniProt P97612)
# T3 sequence (P97612 1-579): T1 sequence (P97612 1-579)
# Assay: Assay Method 1A: FAAH enzyme assay, 14C-oleamide hydrolysis, solubilized liver plasma membrane extract;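 further: ki obtained by Dixon analysis, taking the x-intercept of inhibitor concentration versus reciprocal rate plots at fixed substrate level and correcting for substrate concentration relative to Km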
# Details: not given
row,Compound,Ki [nM]
1,"O=C(CCCCCCc1ccccc1)c1ncc(-c2cccc(F)c2)o1 [Example 11, 1-(5-(3-Fluorophenyl)oxazol-2-yl)-7-phenylheptan-1-one]",60
2,"O=C(CCCCCCc1ccccc1)c1ncc(-c2ccc(C(=O)O)s2)o1 [Example 58, 5-(2-(7-Phenylheptanoyl)oxazol-5-yl)thiophene-2-carboxylic acid]",11
3,"O=C(CCCCCCc1ccccc1)c1ncc(-c2ccccc2F)o1 [Example 10, 1-(5-(2-Fluorophenyl)oxazol-2-yl)-7-phenylheptan-1-one]",110
4,"O=C(CCCCCCc1ccccc1)c1ncc(-c2ccccc2O)o1 [Example 30, 1-(5-(2-Hydroxyphenyl)oxazol-2-yl)-7-phenylheptan-1-one]",170
5,"O=C(CCCCCCc1ccccc1)c1ncc(-c2cccc([N+](=O)[O-])c2)o1 [Example 2, 1-(5-(3-Nitrophenyl)oxazol-2-yl)-7-phenylheptan-1-one]",28
6,"COC(=O)c1ccc(-c2cnc(C(=O)CCCCCCc3ccccc3)o2)s1 [Example 57, Methyl 5-(2-(7-phenylheptanoyl)oxazol-5-yl)thiophene-2-carboxylate]",7

# Now from value to molecule:
row,Ki [nM],Compound
1,40,"COC(=O)c1ccc(-c2cnc(C(=O)CCCCCCc3ccccc3)o2)cc1 [Example 24, Methyl 4-(2-(7-phenylheptanoyl)oxazol-5-yl)benzoate]"
2,12,"COC(=O)c1cccc(-c2cnc(C(=O)CCCCCCc3ccccc3)o2)c1 [Example 23, Methyl 3-(2-(7-phenylheptanoyl)oxazol-5-yl)benzoate]"
3,> 50,"COC(=O)c1cccnc1-c1cnc(C(=O)CCCCCCc2ccccc2)o1 [Example 36, Methyl 2-(2-(7-phenylheptanoyl)oxazol-5-yl)nicotinate]"
4,4,"COC(=O)c1ccc(-c2cnc(C(=O)CCCCCCc3ccccc3)o2)nc1 [Example 34, Methyl 6-(2-(7-phenylheptanoyl)oxazol-5-yl)nicotinate]"
